Where a name gives a salt, the structure may show the parent alone.
Legend:
Type in all cases: physicochemical
[1] = Storage stability of amorphous atorvastatin calcium, Example 6 packaging (6 percent w/w water; nitrogen, silica gel)
Description: The following packaging procedure was followed: 1) amorphous atorvastatin calcium having a 6 percent w/w water content was initially packed in a polyethylene bag, which was then tied; 2) the tied polyethylene bag was placed in a black polyethylene bag with a silica gel pouch under a nitrogen atmosphere and then sealed; 3) the sealed black polyethylene bag was placed in a triple laminated bag along with a silica gel pouch, was purged with nitrogen, and sealed; and 4) the sealed laminated bag was stored in a HDPE drum.
table, where water was determined by the Karl Fischer method, and total organic impurities are expressed as area-percent, as determined by high performance liquid chromatography.

[2] = Storage stability of amorphous atorvastatin calcium, Example 7 packaging (2 percent w/w moisture; nitrogen, silica gel, oxygen absorbent)
Description: The following packaging procedure was followed: 1) amorphous atorvastatin calcium having a 2 percent w/w moisture content was placed in a white polyethylene bag, the bag was purged with nitrogen, and then the bag was tied; 2) the tied white polyethylene bag was placed into a black polyethylene bag, along with a silica gel pouch and a bag of oxygen absorbent, then the black bag was purged with nitrogen and sealed; 3) the sealed black polyethylene bag was placed into a triple laminated bag along with a silica gel pouch, and then the laminated bag was purged with nitrogen and sealed; and 4) the sealed laminated bag was stored in a HDPE drum.

[3] = Storage stability of commercial-sized batch of amorphous atorvastatin calcium, Example 8 packaging
Description: A commercial-sized batch of amorphous atorvastatin calcium was packaged as follows:
a) amorphous atorvastatin calcium having a 6 percent w/w water content was initially placed into a clear polyethylene bag, air was removed, and the clear polyethylene bag was tied;
b) the tied clear polyethylene bag was placed into a black polyethylene bag along with a silica gel pouch and a package of oxygen absorbent, and then the black polyethylene bag was purged with nitrogen and sealed; and
c) the sealed black polyethylene bag was placed in a triple laminated bag along with a silica gel pouch, then the laminated bag was purged with nitrogen and sealed.

[4] = 25° C. and 60% relative humidity, 2 Months
[5] = 25° C. and 60% relative humidity, 45 Days
[6] = 25° C. and 60% relative humidity, Initial
[7] = 40° C. and 75% relative humidity, 2 Months
[8] = 40° C. and 75% relative humidity, 45 Days
[9] = all three storage conditions, up to 2 Months
[10] = 25° C. and 60% relative humidity, 1 Month
[11] = 40° C. and 75% relative humidity, 1 Month
[12] = 40° C. and 75% relative humidity, 15 Days
[13] = 40° C. and 75% relative humidity, Initial
[14] = 25° C. and 60% relative humidity, 2 Month
[15] = 25° C. and 60% relative humidity, 3 Month
[16] = 40° C. and 75% relative humidity, 2 Month
[17] = 40° C. and 75% relative humidity, 3 Month

SMILES: CC(C)c1c(C(=O)Nc2ccccc2)c(-c2ccccc2)c(-c2ccc(F)cc2)n1CC[C@@H](O)C[C@@H](O)CC(=O)O (relative stereo) [amorphous atorvastatin calcium, [R-(R*,R*)]-2-(4-fluorophenyl)-β,δ-dihydroxy-5-(1-methylethyl)-3-phenyl-4-[(phenylamino)carbonyl]-1H-pyrrole-1-heptanoic acid, calcium salt (2:1)]
- Total Impurities ([1]; 2 to 8° C., 2 Months): 0.47 area-percent
- Wt. Percent H2O ([1]; 2 to 8° C., 2 Months): 4.80 Wt. Percent
- Total Impurities ([1]; 2 to 8° C., 45 Days): 0.46 area-percent
- Wt. Percent H2O ([1]; 2 to 8° C., 45 Days): 4.50 Wt. Percent
- Total Impurities ([1]; 2 to 8° C., Initial): 0.37 area-percent
- Wt. Percent H2O ([1]; 2 to 8° C., Initial): 6.00 Wt. Percent
- Total Impurities [1, 4]: 0.49 area-percent
- Wt. Percent H2O [1, 4]: 3.97 Wt. Percent
- Total Impurities [1, 5]: 0.51 area-percent
- Wt. Percent H2O [1, 5]: 3.70 Wt. Percent
- Total Impurities [1, 6]: 0.37 area-percent
- Wt. Percent H2O [1, 6]: 6.00 Wt. Percent
- Total Impurities [1, 7]: 0.50 area-percent
- Wt. Percent H2O [1, 7]: 3.47 Wt. Percent
- Total Impurities [1, 8]: 0.61 area-percent
- Wt. Percent H2O [1, 8]: 3.49 Wt. Percent
- Total Impurities ([1]; 40° C. and 75% relative humidity, Initial, HPLC): 0.37 area-percent
- Wt. Percent H2O ([1]; 40° C. and 75% relative humidity, Initial, Karl Fischer): 6.00 Wt. Percent
- Change during the storage periods [1, 9]: did not change appreciably
- Total Impurities ([2]; 2 to 8° C., 1 Month): 0.27 area-percent
- Wt. Percent H2O ([2]; 2 to 8° C., 1 Month): 2.3 Wt. Percent
- Total Impurities ([2]; 2 to 8° C., 2 Months): 0.30 area-percent
- Wt. Percent H2O ([2]; 2 to 8° C., 2 Months): 2.6 Wt. Percent
- Total Impurities ([2]; 2 to 8° C., Initial): 0.29 area-percent
- Wt. Percent H2O ([2]; 2 to 8° C., Initial): 2.0 Wt. Percent
- Total Impurities [2, 10]: 0.34 area-percent
- Wt. Percent H2O [2, 10]: 2.4 Wt. Percent
- Total Impurities [2, 4]: 0.38 area-percent
- Wt. Percent H2O [2, 4]: 2.9 Wt. Percent
- Total Impurities [2, 6]: 0.29 area-percent
- Wt. Percent H2O [2, 6]: 2.0 Wt. Percent
- Total Impurities [2, 11]: 0.41 area-percent
- Wt. Percent H2O [2, 11]: 3.4 Wt. Percent
- Total Impurities [2, 7]: 0.40 area-percent
- Wt. Percent H2O [2, 7]: 3.2 Wt. Percent
- Total Impurities [2, 12]: 0.34 area-percent
- Wt. Percent H2O [2, 12]: 3.1 Wt. Percent
- Total Impurities [2, 8]: 0.34 area-percent
- Wt. Percent H2O [2, 8]: 3.2 Wt. Percent
- Total Impurities [2, 13]: 0.29 area-percent
- Wt. Percent H2O [2, 13]: 2.0 Wt. Percent
- Change during the storage periods [2, 9]: did not change appreciably
- Total Impurities ([3]; 2 to 8° C., 1 Month): 0.37 area-percent
- Wt. Percent H2O ([3]; 2 to 8° C., 1 Month): 5.4 Wt. Percent
- Total Impurities ([3]; 2 to 8° C., 2 Month): 0.36 area-percent
- Wt. Percent H2O ([3]; 2 to 8° C., 2 Month): 5.3 Wt. Percent
- Total Impurities ([3]; 2 to 8° C., 3 Month): 0.34 area-percent
- Wt. Percent H2O ([3]; 2 to 8° C., 3 Month): 5.4 Wt. Percent
- Total Impurities ([3]; 2 to 8° C., Initial): 0.35 area-percent
- Wt. Percent H2O ([3]; 2 to 8° C., Initial): 5.4 Wt. Percent
- Total Impurities [3, 10]: 0.41 area-percent
- Wt. Percent H2O [3, 10]: 4.6 Wt. Percent
- Total Impurities [3, 14]: 0.42 area-percent
- Wt. Percent H2O [3, 14]: 4.8 Wt. Percent
- Total Impurities [3, 15]: 0.40 area-percent
- Wt. Percent H2O [3, 15]: 4.9 Wt. Percent
- Total Impurities [3, 6]: 0.35 area-percent
- Wt. Percent H2O [3, 6]: 5.4 Wt. Percent
- Total Impurities [3, 11]: 0.45 area-percent
- Wt. Percent H2O [3, 11]: 4.3 Wt. Percent
- Total Impurities [3, 16]: 0.47 area-percent
- Wt. Percent H2O [3, 16]: 4.5 Wt. Percent
- Total Impurities [3, 17]: 0.48 area-percent
- Wt. Percent H2O [3, 17]: 5.0 Wt. Percent
- Total Impurities [3, 12]: 0.39 area-percent
- Wt. Percent H2O [3, 12]: 4.8 Wt. Percent
- Total Impurities [3, 8]: 0.45 area-percent
- Wt. Percent H2O [3, 8]: 4.3 Wt. Percent
- Total Impurities [3, 13]: 0.35 area-percent
- Wt. Percent H2O [3, 13]: 5.4 Wt. Percent
- Change during the storage periods ([3]; all three storage conditions, up to 3 Month): did not change appreciably
